39 compounds from US20250313535A1, “ALPHA 4 BETA 7 INTEGRIN MODULATORS AND USES THEREOF” (DICE MOLECULES SV, INC., priority 2022, published 2025) can be followed below.

Experiment [1] deals with α4β7 integrin (Homo sapiens (Human), UniProt P13612+P26010). Briefly: Integrin Adhesion Assay: Protocol 4 (MAdCAM-coated plate, RPMI-8866 cells with stable LOF mutation of the ITGB1 gene). Type of experiment: cell-based. The essentials: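 RPMI-8866 cells with CRISPR/Cas9 knockout of ITGB1 (2×10^6/mL) were added to MAdCAM-coated wells with compound (1% DMSO) in HEPES/NaCl buffer with 1 mM MnCl2, 0.1 mM CaCl2 and 1% BSA, then incubated 1 h at 37 °C. After four washes, adherent cells were quantified by CellTiter-Glo luminescence. Percent inhibition versus DMSO and control compound was fitted to 4-parameter curves.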
α4β7 integrin, sequence (P13612 34-1032): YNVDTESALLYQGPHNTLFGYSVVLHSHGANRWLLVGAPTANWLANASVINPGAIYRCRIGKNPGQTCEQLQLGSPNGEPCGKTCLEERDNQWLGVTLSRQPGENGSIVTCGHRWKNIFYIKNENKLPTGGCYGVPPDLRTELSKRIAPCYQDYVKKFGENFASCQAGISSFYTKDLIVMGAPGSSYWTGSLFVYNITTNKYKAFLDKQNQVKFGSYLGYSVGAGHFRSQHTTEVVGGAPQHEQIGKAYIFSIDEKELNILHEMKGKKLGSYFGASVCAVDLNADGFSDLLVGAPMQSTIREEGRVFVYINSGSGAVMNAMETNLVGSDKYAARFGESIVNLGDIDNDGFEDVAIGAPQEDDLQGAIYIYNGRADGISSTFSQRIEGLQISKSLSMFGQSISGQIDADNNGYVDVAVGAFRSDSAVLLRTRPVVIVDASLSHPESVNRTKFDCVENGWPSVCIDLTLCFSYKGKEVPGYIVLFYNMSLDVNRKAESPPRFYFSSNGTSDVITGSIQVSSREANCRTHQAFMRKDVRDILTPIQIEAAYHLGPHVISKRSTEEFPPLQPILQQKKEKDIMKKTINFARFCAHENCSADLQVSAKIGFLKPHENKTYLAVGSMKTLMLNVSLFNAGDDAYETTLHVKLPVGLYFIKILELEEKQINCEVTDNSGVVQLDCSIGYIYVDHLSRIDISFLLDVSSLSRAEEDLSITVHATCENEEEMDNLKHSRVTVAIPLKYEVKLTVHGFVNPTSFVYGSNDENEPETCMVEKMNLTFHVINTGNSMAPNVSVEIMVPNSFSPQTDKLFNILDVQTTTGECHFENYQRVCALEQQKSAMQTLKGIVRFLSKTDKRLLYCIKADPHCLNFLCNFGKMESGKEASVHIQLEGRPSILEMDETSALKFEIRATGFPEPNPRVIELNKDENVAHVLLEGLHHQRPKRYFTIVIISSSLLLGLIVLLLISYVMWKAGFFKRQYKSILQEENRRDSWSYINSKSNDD
α4β7 integrin, sequence (P26010 20-798): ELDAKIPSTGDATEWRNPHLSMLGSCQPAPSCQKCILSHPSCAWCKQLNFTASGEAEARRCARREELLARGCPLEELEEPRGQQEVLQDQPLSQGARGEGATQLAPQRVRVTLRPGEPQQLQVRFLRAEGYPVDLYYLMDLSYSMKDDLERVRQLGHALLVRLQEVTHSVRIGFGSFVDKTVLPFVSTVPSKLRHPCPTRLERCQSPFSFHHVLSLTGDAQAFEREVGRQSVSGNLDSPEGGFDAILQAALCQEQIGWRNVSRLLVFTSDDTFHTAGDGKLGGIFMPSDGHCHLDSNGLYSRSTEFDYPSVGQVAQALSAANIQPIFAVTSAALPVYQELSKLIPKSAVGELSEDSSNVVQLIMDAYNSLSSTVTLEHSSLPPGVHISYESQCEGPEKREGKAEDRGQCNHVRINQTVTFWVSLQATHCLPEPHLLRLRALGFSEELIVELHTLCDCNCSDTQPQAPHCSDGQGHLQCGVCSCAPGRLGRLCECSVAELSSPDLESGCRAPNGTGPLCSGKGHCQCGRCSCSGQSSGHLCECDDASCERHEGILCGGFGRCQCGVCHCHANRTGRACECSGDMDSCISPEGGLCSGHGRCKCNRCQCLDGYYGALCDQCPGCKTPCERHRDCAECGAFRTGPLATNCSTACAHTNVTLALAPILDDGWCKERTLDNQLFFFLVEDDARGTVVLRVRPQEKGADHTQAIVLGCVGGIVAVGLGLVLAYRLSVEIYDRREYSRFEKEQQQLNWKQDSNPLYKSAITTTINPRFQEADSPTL

For experiment [2], the target named is α4β1 integrin (Homo sapiens (Human), UniProt P05556+P13612). Briefly: Integrin Adhesion Assay: Protocol 5 (VCAM-coated plate, RPMI-8866 cells with stable LOF mutation of the ITGB7 gene). The class given is cell-based. Put shortly:
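RPMI-8866 B cells with CRISPR/Cas9 ITGB7 knockout (clonal, verified by flow cytometry) adhered to VCAM-coated wells for 1 h at 37° C in HEPES/NaCl buffer with 1 mM MnCl2, 0.1 mM CaCl2, 1% BSA, 1% DMSO. Bound cells quantified by CellTiter-Glo luminescence after washing; % inhibition versus DMSO and control, 4-parameter fit.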

[3] abbreviates: RPMI-8866 cells with stable LOF mutation of the ITGB1 gene, read-out: Mean IC50 α4β7 KO^a.
Where [4] appears, read: RPMI-8866 cells with stable LOF mutation of the ITGB7 gene, read-out: Mean IC50 α4β1 KO^b.
[5] abbreviates: Protocol 4, RPMI-8866 cells with LOF mutation of ITGB1, MAdCAM, read-out: Mean IC50 α4β7 KO.
[6] abbreviates: Protocol 5, RPMI-8866 cells with LOF mutation of ITGB7, VCAM, read-out: Mean IC50 α4β1 KO.

Like-named read-outs stand apart in the source and are kept apart here. Where only a bound is given, the exact number is not on record here.

α4β1 integrin, sequence (P13612 34-1032): as the sequence (P13612 34-1032) above
α4β1 integrin, sequence (P05556 21-798): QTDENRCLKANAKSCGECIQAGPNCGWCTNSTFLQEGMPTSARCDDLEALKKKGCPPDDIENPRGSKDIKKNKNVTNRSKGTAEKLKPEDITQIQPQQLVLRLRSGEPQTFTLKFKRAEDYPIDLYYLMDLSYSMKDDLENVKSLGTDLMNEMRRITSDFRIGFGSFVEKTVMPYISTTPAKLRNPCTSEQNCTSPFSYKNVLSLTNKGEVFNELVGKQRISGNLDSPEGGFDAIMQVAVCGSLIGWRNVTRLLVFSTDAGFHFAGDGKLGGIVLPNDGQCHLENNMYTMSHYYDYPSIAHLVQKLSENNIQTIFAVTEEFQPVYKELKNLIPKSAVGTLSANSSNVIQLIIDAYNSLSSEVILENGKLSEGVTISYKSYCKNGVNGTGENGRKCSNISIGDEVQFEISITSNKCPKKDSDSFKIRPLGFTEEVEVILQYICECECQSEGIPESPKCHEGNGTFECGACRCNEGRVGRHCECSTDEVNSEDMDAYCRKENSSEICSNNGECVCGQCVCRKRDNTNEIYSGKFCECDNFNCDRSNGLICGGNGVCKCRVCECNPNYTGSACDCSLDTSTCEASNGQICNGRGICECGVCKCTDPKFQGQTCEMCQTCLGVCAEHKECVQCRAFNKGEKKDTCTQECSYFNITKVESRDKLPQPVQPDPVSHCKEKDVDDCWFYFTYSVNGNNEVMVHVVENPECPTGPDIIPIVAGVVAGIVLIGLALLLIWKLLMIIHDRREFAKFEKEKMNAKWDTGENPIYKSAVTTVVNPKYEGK

Regarding `COc1ccc(CN2CCCCC2)c(C(F)(F)F)c1-c1cccc2c(C[C@H](NC(=O)C3(C(F)(F)F)CCN(CC(F)(F)F)CC3)C(=O)O)cccc12` [Compound 564], the IC50 is < 10 nM in experiment [1] (setting [3]) and 100 to 1000 nM in experiment [2] (setting [4]).
Take `Cc1cccc(F)c1C(=O)N[C@@H](Cc1cccc2c(-c3c(C(F)(F)F)c4cc(CN(C)C)ccc4n(C)c3=O)cccc12)C(=O)O` [Compound 451]: the IC50 is < 10 nM in experiment [1] (setting [3]) and 100 to 1000 nM in experiment [2] (setting [4]).
As to `Cn1c(=O)c(-c2cccc3c(C[C@H](NC(=O)C4(C(F)(F)F)CCN(C5CCOC(C(F)(F)F)C5)CC4)C(=O)O)cccc23)c(C(F)(F)F)c2ccccc21` (stereo partly drawn) [Compound 514], the IC50 in experiment [1] (setting [3]) is 10 to 100 nM; in experiment [2] (setting [4]), > 1000 nM.
As to `COc1cc(CN2CCC(C)(C)CC2)cnc1-c1cccc2c(C[C@H](NC(=O)c3c(C)cccc3F)C(=O)O)cccc12` [Compound 1005], the IC50 in experiment [1] (setting [5]) was 10 to 100 nM; in experiment [2] (setting [6]) it was > 1000 nM.
Taken in the same sequence, the figures for `COc1ccc(CN(C)C)c(Cl)c1-c1cccc2c(C[C@H](NC(=O)c3c(C)cccc3F)C(=O)O)cccc12` [Compound 1038] were < 10 nM and 100 to 1000 nM.
With `COc1ccc(CN(C)C)c(OC)c1-c1cccc2c(C[C@H](NC(=O)c3c(C)cc(NCC(F)(F)F)cc3F)C(=O)O)cccc12` [Compound 607], the IC50 in experiment [1] (setting [3]) was < 10 nM; in experiment [2] (setting [4]), 100 to 1000 nM.
With `COc1ccc(CN2CCCC(F)C2)c(C(F)(F)F)c1-c1cccc2c(C[C@H](NC(=O)C3(C(F)(F)F)CCN(CC(F)(F)F)CC3)C(=O)O)cccc12` (stereo partly drawn) [Compound 820], the results for the IC50 in experiment [1] (setting [5]) and in experiment [2] (setting [6]) were 10 to 100 nM and > 1000 nM, respectively.
For `COc1ccc(CN2CCC(F)(F)C2)c(OC)c1-c1cccc2c(C[C@H](NC(=O)C3(C(F)(F)F)CCN(CC(F)(F)F)CC3)C(=O)O)cccc12` [Compound 783], the IC50 in experiment [1] (setting [5]) is 10 to 100 nM; in experiment [2] (setting [6]), > 1000 nM.
Regarding `COc1cc(CN2CCC(C)(C)CC2)cnc1-c1cccc2c(C[C@H](NC(=O)C3(C(F)(F)F)CCN(CC(F)(F)F)CC3)C(=O)O)cccc12` [Compound 890], the IC50 is < 10 nM in experiment [1] (setting [5]) and > 1000 nM in experiment [2] (setting [6]).
For the compound `COc1ccc2c(c1-c1cccc3c(C[C@H](NC(=O)C4(C(F)(F)F)CCN(CC(F)(F)F)CC4)C(=O)O)cccc13)CCN(CC(F)F)C2` [Compound 752], the results for the 50% inhibitory concentration (IC50) in experiment [1] (setting [5]) and in experiment [2] (setting [6]) were 10 to 100 nM and > 1000 nM, respectively.
Turning to `COc1ccc(CN2CCC(C(F)(F)F)CC2)c(OC)c1-c1cccc2c(C[C@H](NC(=O)C3(C(F)(F)F)CCN(CC(F)(F)F)CC3)C(=O)O)cccc12` [Compound 844], the results for the IC50 in experiment [1] (setting [5]) and in experiment [2] (setting [6]) were < 10 nM and 100 to 1000 nM, respectively.
`COc1ccc(CN2CCC(F)(F)CC2)c(OC)c1-c1cccc2c(C[C@H](NC(=O)C3(C(F)(F)F)CCN(CC(F)F)CC3)C(=O)O)cccc12` [Compound 946]: the half-inhibitory concentration (IC50) lay within 10 to 100 nM in experiment [1] (setting [5]) and 100 to 1000 nM in experiment [2] (setting [6]).
`COc1ccc(CN2CCC(F)(F)CC2)nc1-c1cccc2c(C[C@H](NC(=O)c3c(C)cccc3F)C(=O)O)cccc12` [Compound 600]: the IC50 in experiment [1] (setting [3]) was 10 to 100 nM; in experiment [2] (setting [4]), > 1000 nM.
The matching figures for `COc1ccc(CN2CCN(C3CCC3)CC2)c(OC)c1-c1cccc2c(C[C@H](NC(=O)c3c(C)cccc3F)C(=O)O)cccc12` [Compound 656]: < 10 nM and 100 to 1000 nM.
As for `O=C(O)[C@H](Cc1cccc2c(-c3ncc(CN4CCC5(CCCCC5)CC4)c4ccccc34)cccc12)NC(=O)C1(C(F)(F)F)CCN(CC(F)(F)F)CC1` [Compound 857], the IC50 in experiment [1] (setting [5]) is 10 to 100 nM; in experiment [2] (setting [6]), > 1000 nM.
The matching figures for `Cc1cc(CCN2CCCCC2)cnc1-c1cccc2c(C[C@H](NC(=O)C3(C(F)(F)F)CCN(CC(F)F)CC3)C(=O)O)cccc12` [Compound 756]: < 10 nM and > 1000 nM.
For `O=C(O)[C@H](Cc1cccc2c(-c3ccc(CN4CCC(F)CC4)c4ccncc34)cccc12)NC(=O)C1(C(F)(F)F)CCN(CC(F)(F)F)CC1` [Compound 987], the IC50 in experiment [1] (setting [5]) was < 10 nM; in experiment [2] (setting [6]) it was > 1000 nM.
Taken in the same sequence, the figures for `COc1cc(CN2CCCCC2)cc(C(F)(F)F)c1-c1cccc2c(C[C@H](NC(=O)c3c(C)cccc3F)C(=O)O)cccc12` [Compound 1023] were < 10 nM and 100 to 1000 nM.
Consider `Cn1c(=O)c(-c2cccc3c(C[C@H](NC(=O)C4(C)CCC5(CCOCC5)CC4)C(=O)O)cccc23)c(C(F)(F)F)c2ccccc21` [Compound 522], for which the IC50 in experiment [1] (setting [3]) was 10 to 100 nM; in experiment [2] (setting [4]) it was > 1000 nM.
Turning to `COc1ccc(CN2CCCC2C)c(OC)c1-c1cccc2c(C[C@H](NC(=O)c3c(C)cccc3F)C(=O)O)cccc12` (stereo partly drawn) [Compound 633], the IC50 in experiment [1] (setting [3]) is < 10 nM; in experiment [2] (setting [4]) it was 10 to 100 nM.
With `CN(C)CCc1ccc2c(c1)c(C(F)(F)F)c(-c1cccc3c(C[C@H](NC(=O)C4(C(F)(F)F)CCN(CC(F)(F)F)CC4)C(=O)O)cccc13)c(=O)n2C` [Compound 707], the IC50 is < 10 nM in experiment [1] (setting [5]) and 10 to 100 nM in experiment [2] (setting [6]).
Take `O=C(O)[C@H](Cc1cccc2c(-c3nccc4c(CN5CCC6(CCCCC6)CC5)cccc34)cccc12)NC(=O)C1(C(F)(F)F)CCN(CC(F)(F)F)CC1` [Compound 661]: the results for the half-inhibitory concentration (IC50) in experiment [1] (setting [3]) and in experiment [2] (setting [4]) were 10 to 100 nM and > 1000 nM, respectively.
Consider `COc1cccc(CCN2CCCC(C)(C)C2)c1-c1cccc2c(C[C@H](NC(=O)C3(C(F)(F)F)CCN(CC(F)(F)F)CC3)C(=O)O)cccc12` [Compound 961], for which the IC50 in experiment [1] (setting [5]) was < 10 nM; in experiment [2] (setting [6]), 100 to 1000 nM.
Regarding `COC(=O)[C@H](Cc1cccc2c(-c3c(OC)ccc(CN(C)C)c3C(F)(F)F)cccc12)NC(=O)OC(C)(C)C` [Compound 551], the IC50 in experiment [1] (setting [3]) was < 10 nM; in experiment [2] (setting [4]), 100 to 1000 nM.
In the case of `CCCN1CCC(C(=O)N[C@@H](Cc2cccc3c(-c4c(C(F)(F)F)c5ccccc5n(C)c4=O)cccc23)C(=O)O)(C(F)(F)F)CC1` [Compound 535], the IC50 in experiment [1] (setting [3]) is 10 to 100 nM; in experiment [2] (setting [4]), > 1000 nM.
On to `COc1ccc(CN2CCOCC2)c(OC)c1-c1cccc2c(C[C@H](NC(=O)c3c(C)cccc3F)C(=O)O)cccc12` [Compound 650], for which the values for the IC50 in experiment [1] (setting [3]) and in experiment [2] (setting [4]) were < 10 nM and 100 to 1000 nM, respectively.
In the case of `Cc1cc(CN2CCC(C)(C)CC2)cnc1-c1cccc2c(C[C@H](NC(=O)C3(C(F)(F)F)CCN(C4COC4)CC3)C(=O)O)cccc12` [Compound 945], the IC50 is < 10 nM in experiment [1] (setting [5]) and > 1000 nM in experiment [2] (setting [6]).
As to `Cn1c(=O)c(-c2cccc3c(C[C@H](NC(=O)c4c(F)cccc4F)C(=O)O)cccc23)c(C(F)(F)F)c2cc(CN)ccc21` [Compound 1051], the figures for the IC50 in experiment [1] (setting [5]) and in experiment [2] (setting [6]) were < 10 nM and 100 to 1000 nM, respectively.
As to `O=C(O)[C@H](Cc1cccc2c(-c3c(C(F)(F)F)ccc4cccnc34)cccc12)NC(=O)C1(C(F)(F)F)CCN(CC(F)(F)F)CC1` [Compound 524], the IC50 in experiment [1] (setting [3]) is 10 to 100 nM; in experiment [2] (setting [4]), > 1000 nM.
The matching figures for `O=C(O)[C@H](Cc1cccc2c(-c3nccc4c(CN5CCCCC5)cccc34)cccc12)NC(=O)C1(C(F)(F)F)CCN([C@@H]2COCC2(F)F)CC1` [Compound 642]: < 10 nM and > 1000 nM.
The matching figures for `COc1ccc(CN2C[C@@H](C)O[C@@H](C)C2)c(OC)c1-c1cccc2c(C[C@H](NC(=O)c3c(C)cccc3F)C(=O)O)cccc12` [Compound 651]: < 10 nM and 100 to 1000 nM.
In the case of `COc1ccc(CN2CCC(C)(C)CC2)c(OC)c1-c1cccc2c(C[C@H](NC(=O)c3c(C)cccc3F)C(=O)O)cccc12` [Compound 626], the IC50 was < 10 nM in experiment [1] (setting [3]) and 100 to 1000 nM in experiment [2] (setting [4]).
Taken in the same sequence, the figures for `O=C(O)[C@H](Cc1cccc2c(-c3nccc4c(CN5CCCC5)cccc34)cccc12)NC(=O)C1(C(F)(F)F)CCN(CC(F)(F)F)CC1` [Compound 553] were < 10 nM and 100 to 1000 nM.
`Cn1c(=O)c(-c2cccc3c(C[C@H](NC(=O)C4(C(F)(F)F)CCN(C5COC(C(F)(F)F)C5)CC4)C(=O)O)cccc23)c(C(F)(F)F)c2ccccc21` (stereo partly drawn) [Compound 507]: the IC50 was 100 to 1000 nM in experiment [1] (setting [3]) and > 1000 nM in experiment [2] (setting [4]).
Take `Cn1c(=O)c(-c2cccc3c(C[C@H](NC(=O)C4(C(F)(F)F)CCN(C(C(F)(F)F)C(F)(F)F)CC4)C(=O)O)cccc23)c(C(F)(F)F)c2ccccc21` [Compound 490]: the IC50 in experiment [1] (setting [3]) and in experiment [2] (setting [4]) was > 1000 nM each time.
As to `O=C(O)[C@H](Cc1cccc2c(-c3ncc(CCN4CCC[C@@H](F)C4)c4ccccc34)cccc12)NC(=O)C1(C(F)(F)F)CCN(CC(F)(F)F)CC1` [Compound 977], the IC50 in experiment [1] (setting [5]) was < 10 nM; in experiment [2] (setting [6]) it was > 1000 nM.
For the compound `O=C(O)[C@H](Cc1cccc2c(-c3ncc(CN4CCC[C@@H](F)C4)c4ccccc34)cccc12)NC(=O)C1(C(F)(F)F)CCN(CC(F)F)CC1` [Compound 860], the values for the IC50 in experiment [1] (setting [5]) and in experiment [2] (setting [6]) were < 10 nM and > 1000 nM, respectively.
With `O=C(O)[C@H](Cc1cccc2c(-c3ncc(CN4CCC4)c4ccccc34)cccc12)NC(=O)C1(C(F)(F)F)CCN(CC(F)(F)F)CC1` [Compound 919], the IC50 is < 10 nM in experiment [1] (setting [5]) and > 1000 nM in experiment [2] (setting [6]).
Taken in the same sequence, the figures for `O=C(O)[C@H](Cc1cccc2c(-c3ncc(CN4CCC5(CCC5)C4)c4ccccc34)cccc12)NC(=O)C1(C(F)(F)F)CCN(CC(F)F)CC1` [Compound 909] were < 10 nM and 100 to 1000 nM.

In general, IC50 refers to the midpoint of a concentration-inhibition curve.
